Source: US20240000740A1, “OMEGA-3 POLYUNSATURATED FATTY ACIDS FOR TREATING / PREVENTING MALE INFERTILITY IN PREPUBERTAL CANDIDATES FOR GONADOTOXIC THERAPIES” (UNIVERSITA' DEGLI STUDI DI PERUGIA, priority 2020, published 2024)
“Also recorded” adds a separate entry of the source.

Assays:
Format in all cases: cell-based, pig
[1] = tested on: 5-hydroxymethylcytosine (5hmC); experiment: Immunofluorescence analysis of 5hmC in Sertoli cells (SCs) of prepubertal pigs; settings: 48 hours plus 24 of recovery, compared to untreated SCs
Description: (§1) The animal studies were conducted in accordance with national guidelines (approved Italian animal protection certification A-3143-01) and guidelines of the Committee for the Care and Use of Animals of the University of Perugia. The experimental protocols were approved by the University of Perugia. The newborn prepubertal “Large White” pigs (Farm “Trequattrini”, S. Elena di Marsciano, PG), aged 7-15 days, were used as SC donors. The SCs were isolated in accordance with previously established methods, modified in our laboratory (Luca et al., 2015).
(§2) The SCs were maintained at 37° C. and 5% CO2 in HAMF-12 (Euroclone, MI, Italy) supplemented with 0.166 nM of retinoic acid (Sigma-Aldrich, St. Louis, MO, USA) and 5 mL/500 ml of ITS (Becton Dickinson cat. no. 354352, NJ, USA) in the absence (untreated) or presence of chemotherapeutic drugs for 48 hours plus 24 of recovery at the following concentrations: • Cisplatin 0.33 μM, 1.66 μM and 3.33 μM; • 4-hydroperoxycyclophosphamide (40HP) 50 and 100 μM; • Doxorubicin 0.1 μM, 0.2 μM and 1 μM; • cisplatin 3.33 μM plus EPA 100 μM; • cisplatin 3.33 μM plus 5-aza-2′-deoxy-cytidine (5 AZA) 1 μM.
The untreated SCs and SCs treated with chemotherapeutic drugs (plus EPA or without EPA), were made to grow on round slides pre-treated with gelatine (Sigma-Aldrich). At the end of the treatment, the SCs were fixed for 30 min in 4% paraformaldehyde in phosphate buffer (PBS). Prior to immunolabelling, the cells were subjected to permeabilization (PBS, 0.2% Triton X) for 5 min at room temperature, blocked in 0.5% bovine serum albumin (BSA; Sigma-Aldrich, St. Louis, MO) in PBS for 10 min, and then exposed to the primary anti-5hmC antibody (Santa Cruz Biotechnology, 1:100 in PBS) overnight at 4° C. The cells were washed three times in PBS for 5 min and then exposed to the secondary Alexa-488 labelled antibody (1:500 in PBS). The cells were counterstained with 4′,6-diamidino-2-phenylindole (DAPI) for 1 min after treatment with RNase (10 mg/mL per 10 min.). The negative control for the immunolabelling consisted in skipping the labelling with the primary antibody and passing directly to the secondary antibody. The slides were then mounted with ProLong® Gold Antifade (ThermoFisher) and the images were acquired with an Olympus BX-41 equipped with Cell-F image processing software (Olympus).

GDNF [2] = experiment: Real-time PCR analysis of GDNF gene expression in SCs of prepubertal pigs; settings: for gene expression of GDNF, real-time PCR: 48 hours plus 24 of recovery, compared to untreated SCs
Description: as §1, §2
Total RNA was isolated from the monolayers of untreated SCs and SCs treated with chemotherapeutic drugs (plus EPA or without EPA) by means of an RNA purification kit (Versagene RNA Cell Kit, Gentra Systems, Minneapolis, MN) and quantified by reading the optical density at 260 nm. Subsequently, 1 μg of total RNA was subjected to RT in a final volume of 20 μl by means of the Maxima First Strand cDNA Synthesis kit (Thermo Scientific, MA, USA). Real-time PCR was performed using 16 ng of cDNA, prepared from the RT reaction, and SYBR Green (Stratagene, Amsterdam, Netherlands). Real-time PCR was performed with an Mx3000P cycler (Stratagene) using FAM for detection and ROX as the reference dye. The level of mRNA for each sample was normalised with respect to the mRNA of β-actin and expressed as a change compared to the level of the untreated control cells.

GDNF [3] = experiment: Western blotting and densitometric analysis of GDNF protein expression in SCs of prepubertal pigs; settings: 48 hours plus 24 of recovery, compared to untreated SCs
Description: as §1, §2
The SCs were maintained at 37° C. and 5% CO2 in HAMF-12 (Euroclone, MI, Italia) supplemented with 0.166 nM of retinoic acid (Sigma-Aldrich, St. Louis, MO, USA) and 5 mL/500 ml of ITS (Becton Dickinson cat. no. 354352, NJ, USA) in the absence (untreated) or presence of cisplatin 0.5 and 1 μg/ml for 48 hours plus 24 of recovery plus 100 μM EPA.
The SCs were cultured at 37° C. and 5% CO2 in HAMF-12 (Euroclone, MI, Italy) supplemented with 0.166 nM of retinoic acid (Sigma-Aldrich, St. Louis, MO, USA) and 5 mL/500 ml of ITS (Becton Dickinson cat. no. 354352, NJ, USA) in the absence (untreated) or presence of cisplatin 0.5 and 1 μg/ml for 48 hours plus 24 of recovery and with the addition of 100 μM EPA. […] The images were acquired by means of the VersaDoc Imaging System (Bio-Rad Hercules, CA, USA), and the respective signals were quantified using Quantity One software (Bio-Rad) 2.8.

[4] = SCs treated with 4-hydroperoxycyclophosphamide 50 and 100 μM
[5] = SCs treated with doxorubicin 0.1, 0.2 and 1 μM
[6] = SCs treated with cisplatin 0.33, 1.66 and 3.33 μM

O=P1(N(CCCl)CCCl)NC(OO)CCO1 (stereo not drawn) [4-hydroperoxycyclophosphamide]
5-hydroxymethylcytosine (5hmC), immunofluorescence analysis [1, 4]: significant reduction
5-hydroxymethylcytosine (5hmC), immunofluorescence analysis ([1]; SCs treated with 4-hydroperoxycyclophosphamide 50 and 100 μM, listed as 4OHP): progressive reduction
gene expression of GDNF, real-time PCR (GDNF [2]; [4]): significant reduction
protein expression of GDNF, western blotting (GDNF [3]; [4]): significant reduction

COc1cccc2c1C(=O)c1c(O)c3c(c(O)c1C2=O)C[C@@](O)(C(=O)CO)C[C@@H]3O[C@H]1C[C@H](N)[C@H](O)[C@H](C)O1 [doxorubicin]
5-hydroxymethylcytosine (5hmC), immunofluorescence analysis [1, 5]: progressive reduction; also recorded: significant reduction
gene expression of GDNF, real-time PCR (GDNF [2]; [5]): significant reduction
protein expression of GDNF, western blotting (GDNF [3]; [5]): significant reduction

N.N.[Cl][Pt][Cl] [Cisplatin]
5-hydroxymethylcytosine (5hmC), immunofluorescence analysis [1, 6]: significant reduction
5-hydroxymethylcytosine (5hmC), immunofluorescence analysis ([1]; SCs treated with cisplatin 0.33, 1.66 and 3.33 μM, listed as cisplatin): progressive reduction
gene expression of GDNF, real-time PCR (GDNF [2]; [6]): significant reduction
protein expression of GDNF, western blotting (GDNF [3]; [6]): significant reduction

Nc1ncn([C@H]2C[C@H](O)[C@@H](CO)O2)c(=O)n1 [AZA, 5-aza-2′-deoxycytidine]
recovery in the expression of GDNF (GDNF [2]; SCs treated with cisplatin 3.33 μM plus 5 AZA 1 μM, compared with EPA treatment): comparable to the one induced by treatment with the fatty acid EPA; also recorded: recovery comparable to that induced by treatment with the fatty acid
